The text below walks through data of US20150024406A1, “INCREASED AQUAPORIN EXPRESSION ON CELLULAR MEMBRANE TO IMPROVE CRYOPRESERVATION EFFICIENCY” (priority 2013, published 2015).

Read-outs that look alike come from different tables or passages of the source.

For assay [1], the system named is rat primary hepatocytes. Put plainly: Post-thaw cell viability after cryopreservation (Live-Dead staining). As to conditions: for post-thaw cell viability vs control: 20% DMSO or 20% glycerol in DMEM as CPA, one week at −80° C., 24 hours recuperation, FIG. 2 and 3; for cell survival with glycerol as the CPA compared with DMSO: treated cells, glycerol vs DMSO as cryoprotectant. Type of assay: cell-based.
Method: Cryopreservation of Treated and Control Samples. After treatment of cell cultures for 12 hours, samples were removed from the incubator and placed on ice to reduce the cell temperature to 4° C. to minimize the toxicity of the cryoprotecting agent (CPA). Two different CPA solutions, 20% dimethyl sulfoxide in DMEM media and 20% glycerol in DMEM media were used. The CPA solution (1 mL) was added to the samples and incubated at 4° C. for 10 minutes to reach equilibrium. Samples were transferred to the CryoMed Control Rate freezer (Thermo Forma, Waltham, Mass.).
The controlled cooling process was initiated at 4° C. and a cooling rate of 1° C./min was maintained until −16° C. followed by a cooling rate of 2° C./min until −36° C./min, and thereafter a cooling rate of 10° C./min until a temperature of −80° C. was achieved. The samples were further maintained at −80° C. for 5 minutes to ensure equilibrium. At the end of the freezing process, the samples were transferred immediately to a −80° C. Revco freezer (Kendro Laboratory, Ashville, N.C.) and stored for a week.
Evaluation of Post-thaw Cell Viability. The cryopreserved samples from the −80° C. freeze were transferred to a sterile glass box and plated in a water bath maintained at 37° C. until the media in the frozen samples completely thawed. At this juncture, the samples were between 5-10° C. Immediately, the CPA containing media in the samples was aspirated to prevent any toxicity to the cells. DMEM (1 mL) was added to the samples and incubated at 37° C. for 10 minutes. After 10 minutes of incubation, the media in the samples was again refreshed in order to remove any remaining traces of CPA. These samples were then placed in the incubator at 37° C., 5% CO2 for 24 hours and allowed to recuperate from the freeze-thaw process.
After 24 hours of recuperation time, cell viability of the samples was determined by using nuclei fluorescence dyes. The samples were washed with 1× PBS solution and incubated with Hoechst Dye (1 μg/mL) and Ethidium Homodimer (2 μM)(Molecular Probes, Eugene, Oreg.) in PBS for 30 minutes. The viability solution was aspirated, and samples were fixed by adding 10% formalin (1 mL) (VWR, West Chester, Pa.) and incubating for 20 minutes. Subsequently, the cell viability was examined with a confocal microscope with DAPI (excitation 358 nm; emission 461 nm) and Texas red (excitation 596 nm; emission 620 nm) filters. The fluorescent images obtained were then analyzed using MetaMorp Imaging System.

Assay [2] relates to AQP8. As to the kind of experiment: Confocal immunofluorescence of AQP8 localization in cultured hepatocytes. It counts as cell-based, rat. The settings on record: hepatocytes treated 12 hours; 100 μM Bt2cAMP or 1 μM glucagon; vs control. As for the experimental part: Confocal immunofluorescence. For confocal immunofluorescence experiments, collagen coated chamber slides were used instead of the tissue culture plates. Hepatocytes (5×10^5) were plated on the collagen-coated chamber slides, and incubated at 37° C. for 4 hours. The cells were then treated with a) Bt2cAMP, b) glucagon and c) normal DMEM media (control) and incubated for 12 hours. After the 12 hours, the cells were fixed with 2% formaldehyde for 10 minutes at room temperature and permeabilized with 0.2% Triton X-100 for 2 minutes. The cells were then treated with a blocking solution containing 3% BSA at room temperature and incubated overnight at 4° C. with goat affinity-purified AQP8 antibody (Santa Cruz Biotechnology Inc., Santa Cruz, Calif.) of dilution 1:50 in PBS. Then, the chamber slides were rinsed with PBS solution and treated with Alexa Flour 488—conjugated donkey anti-goat […] secondary antibody (Invitrogen, Calif.) for 1 hour. The dilution of the secondary antibody used was 1:400 in PBS. Then the cells were treated with 1 μg/mL concentration of Hoechst 33342 (Molecular Probes, Eugene, Oreg.) and mounted with Pro- Long (Molecular Probes, Eugene, Oreg.). Fluorescence localization of the AQP8 was then detected by immersion oil confocal microscopy with 100× magnification lens.

Assay [3] relates to rat primary hepatocytes. As to the kind of experiment: Cell shrinkage analysis in hypertonic NaCl solution. Type of assay: cell-based. The settings on record: 5M NaCl, 20 minutes; 12 hours treatment; HgCl2 0.1 mM for 5 min; vs control cells; FIG. 1. As for the experimental part:
Cell shrinkage analysis. Cell shrinkage analysis was performed on treated and control samples prepared on tissue culture plates as described above. One culture plate at a time was transferred to an Olympus IX70 microscope (Olympus America Inc, Pa.) mounted with a computer interfaced camera (Hamamatsu Corporation, Bridgewater, N.J.). The media from culture plate was aspirated and 1 mL of 5M NaCl solution was added. Response of the cells to the hypertonic NaCl solution was captured at 40× magnification at one minute intervals for 20 minutes. Images were processed using software MetaMorph Imaging System (Molecular Devices, Sunnyvale, Calif.). Using MetaMorp, the variations of the cross-sectional area of the cells at various sites were measured over time to analyze the shrinkage behavior of the cells in the hypertonic solution.

In assay [4] the test system is AQP8. The settings on record: cited from earlier work.

With `OCC(O)CO` [glycerol], the “post-thaw cell viability by CPA used” value with rat primary hepatocytes [1] (glycerol as CPA compared to DMSO) is reported as “significantly higher post-thaw cell viability compared to DMSO”.

On to glucagon, for which, in the assay on AQP8 [2], the “AQP8 labeling at the cellular membrane” value is “higher density of AQP8 labeling at the cellular membrane”. Besides, in the assay on rat primary hepatocytes [3], the “cross-sectional area of cells over time (shrinkage) in hypertonic environment” value (“cross-sectional area of cells over time” below) is given as “significant decrease in their cross-sectional area over time”. The “post-thaw cell viability vs control” value in the assay on rat primary hepatocytes [1] is given as “significantly higher than the control”. Also, the “cell survival with glycerol as the CPA compared with DMSO” value with rat primary hepatocytes [1] is on record as “significant increase in the cell survival”. The entries for the “increase in the quantity of AQP8 on cellular membrane” value in the assay with AQP8 [4] (treatment of hepatocytes for 16 hours) and with AQP8 [4] (treatment of hepatocytes for 36 hours) were 80% and 120%, respectively.

Regarding `[Cl][Hg][Cl]` [HgCl2], the “cross-sectional area of cells over time” value in the assay with rat primary hepatocytes [3] is “no significant shrinkage behavior”. The “post-thaw cell viability vs control” value in the assay on rat primary hepatocytes [1] was “significantly lower cell viability”.

For `CCCC(=O)Nc1ncnc2c1ncn2[C@@H]1O[C@@H]2COP(=O)(O)O[C@H]2[C@H]1OC(=O)CCC` [Bt2cAMP, sodium (3aR,4R,6R,6aR)-4-(6-butanamido-9H-purin-9-yl)-6-[(butanoyloxy)methyl]-2-oxo-tetrahydro-2H-1,3,5,2λ^5-furo[3,4-d][1,3,2] dioxaphosphol-2-olate], the “AQP8 labeling at the cellular membrane” value in the assay with AQP8 [2] is “higher density of AQP8 labeling at the cellular membrane”. Also, the “cross-sectional area of cells over time” value in the assay on rat primary hepatocytes [3] was “significant decrease in their cross-sectional area over time”. Also, in the assay on rat primary hepatocytes [1], the “post-thaw cell viability vs control” value was “significantly higher than the control” and the “cell survival with glycerol as the CPA compared with DMSO” value was “significant increase in the cell survival”. Moreover, the “post-thaw cell viability of Bt2cAMP-treated vs glucagon-treated samples” value in the assay on rat primary hepatocytes [1] (12 hrs treatment, most of the culture samples) is given as “higher cell viability compared to the ones treated with glucagon”.
